Eight compounds from PubChem BioAssay (NCI) can be followed below.

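Assay format: 96-well plates, 48-hour exposure. Here, GI50 denotes the concentration required for 50% inhibition of growth. TGI: total growth inhibition.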

Some test systems named below: HT29 colon; SF-268 CNS; NCI-H460 lung; NCI-H226 lung; SK-MEL-28 melanoma; SK-OV-3 ovarian; SK-MEL-5 melanoma; HCT-15 colon; MOLT-4 leukemia; NCI-H23 lung; SF-539 CNS.
Common to all, as to test: NCI anticancer screen, dose series, 48 h

With `COc1ccc2nc3ccccc3c(NCCCCCCN(CCCl)CCCl)c2c1`, the TGI worked out at 1.28 µM with HT29 colon; 1.18 µM in the test with SF-268 CNS; 0.853 µM with NCI-H460 lung; 1.53 µM in the test on NCI-H226 lung; 76.1 µM in the test on SK-MEL-28 melanoma; 2.74 µM in the test with SK-OV-3 ovarian. In the test with SK-MEL-5 melanoma, this compound returned a TGI of 1.64 µM.
With `COC(=O)C1=C(C(=O)OC)SC2(S1)C1=C(CCCC1)SC(C(=O)OC)=C2C(=O)OC`, the TGI in the test on HT29 colon worked out at 11.7 µM; with SF-268 CNS, 22.3 µM; in the test on NCI-H460 lung it was 15.7 µM; with HCT-15 colon, 18.1 µM; in the test with MOLT-4 leukemia, 11.6 µM; in the test with NCI-H23 lung, 31.3 µM. The TGI amounted to 22.5 µM in the test with SK-MEL-28 melanoma, 28.1 µM in the test with SK-OV-3 ovarian, 4.27 µM with SF-539 CNS and 23.4 µM with SK-MEL-5 melanoma.
Take `Nc1ccc2[nH]c3c(-c4ccccc4)nccc3c2c1`: the TGI in the test on HT29 colon is greater than 100 µM; in the test on SF-268 CNS, greater than 100 µM; with NCI-H460 lung it was greater than 100 µM; with HCT-15 colon, greater than 100 µM; in the test on MOLT-4 leukemia, 22.8 µM; with NCI-H23 lung, greater than 100 µM. In addition, the TGI in the test with NCI-H226 lung was greater than 86.1 µM; in the test on SK-MEL-28 melanoma, greater than 100 µM; with SK-OV-3 ovarian, greater than 100 µM; in the test on SF-539 CNS it was greater than 100 µM; with SK-MEL-5 melanoma, greater than 31.6 µM.
As for `COc1cc(Nc2c3ccccc3nc3ccccc23)ccc1NS(C)(=O)=O`, the TGI was 25.5 µM with SF-268 CNS; 12 µM in the test with NCI-H460 lung; greater than 100 µM in the test with MOLT-4 leukemia; 23.5 µM in the test on NCI-H226 lung; 20.4 µM in the test with SK-MEL-28 melanoma; 30.8 µM in the test with SK-OV-3 ovarian. Moreover, the TGI in the test with SF-539 CNS was 15.6 µM; in the test with SK-MEL-5 melanoma, 28.6 µM.
For the compound `O=C(NC(Cc1ccc(I)cc1)C(=O)O)c1ccc(Br)cc1` (stereo unspecified), the TGI with HT29 colon, in the test on SF-268 CNS, in the test with NCI-H460 lung, in the test with HCT-15 colon, with MOLT-4 leukemia and with NCI-H23 lung was greater than 100 µM in each case. In addition, the TGI in the test with NCI-H226 lung, in the test with SK-MEL-28 melanoma, in the test with SK-OV-3 ovarian, in the test with SF-539 CNS and with SK-MEL-5 melanoma was greater than 100 µM each time.
On to `C[C@]12CCc3nc(Nc4ccccc4)sc3C1=CC[C@@H]1[C@@H]2CC[C@]2(C)/C(=N/NC(N)=S)CC[C@@H]12`, for which the GI50 with HT29 colon is 2.23 µM; in the test with NCI-H460 lung, 6.14 µM; with HCT-15 colon, 1.64 µM; in the test with MOLT-4 leukemia, 1.88 µM; in the test on NCI-H23 lung, 6.15 µM; in the test with NCI-H226 lung, 2.07 µM. The GI50 is 4.49 µM in the test with SK-MEL-28 melanoma, 82.7 µM in the test on SK-OV-3 ovarian and 5.9 µM with SK-MEL-5 melanoma. Also, the TGI in the test with HT29 colon was greater than 100 µM; in the test with NCI-H460 lung, greater than 100 µM; in the test with HCT-15 colon, 6.25 µM; in the test on MOLT-4 leukemia it was greater than 100 µM; in the test on NCI-H23 lung, greater than 100 µM; with NCI-H226 lung it was 5.71 µM. The TGI in the test on SK-MEL-28 melanoma, with SK-OV-3 ovarian and in the test with SK-MEL-5 melanoma was greater than 100 µM each time.
In the case of `COc1ccc(/C(Cl)=C(\C=O)c2ccc(F)cc2)cc1OC`, the TGI amounted to 36.3 µM in the test with HT29 colon; 83.3 µM in the test with SF-268 CNS; 43 µM with NCI-H460 lung; 83.3 µM in the test with HCT-15 colon; 71.7 µM in the test on MOLT-4 leukemia; 66.6 µM with NCI-H23 lung. Moreover, the TGI was 47.2 µM with NCI-H226 lung; 68.4 µM with SK-MEL-28 melanoma; 77.2 µM with SK-OV-3 ovarian; 59 µM in the test with SF-539 CNS; 37.7 µM in the test with SK-MEL-5 melanoma.
In the case of `N=C(N)c1ccc(N=Nc2c(O)ccc3c2[nH]c2ccccc23)cc1`, the TGI in the test on HT29 colon is greater than 100 µM; in the test on SF-268 CNS, greater than 100 µM; with HCT-15 colon it was greater than 100 µM; with MOLT-4 leukemia it was 5.27 µM; in the test on NCI-H23 lung it was greater than 100 µM; in the test with NCI-H226 lung, greater than 90.6 µM. Moreover, the TGI in the test on SK-MEL-28 melanoma is greater than 70.9 µM; in the test on SK-OV-3 ovarian, 79.9 µM; with SF-539 CNS it was greater than 100 µM; in the test on SK-MEL-5 melanoma, greater than 100 µM.
